{
  "source": "paper PMC9462843",
  "about": "(Protein Science : A Publication of the Protein Society, 2022)",
  "type_in_all_cases": "biochemical",
  "key": {"[1]": {"target": "T1, EcIMPDH (Escherichia coli IMPDH) (Escherichia coli, UniProt P0ADG7)", "T1 construct": "Open reading frames of the different enzymes were amplified by PCR using genomic DNA as template; 8xHis (N, cleaved yes); made in house; host or cells: E. coli BL21 (DE3)", "T1 sequence (P0ADG7 whole entry)": "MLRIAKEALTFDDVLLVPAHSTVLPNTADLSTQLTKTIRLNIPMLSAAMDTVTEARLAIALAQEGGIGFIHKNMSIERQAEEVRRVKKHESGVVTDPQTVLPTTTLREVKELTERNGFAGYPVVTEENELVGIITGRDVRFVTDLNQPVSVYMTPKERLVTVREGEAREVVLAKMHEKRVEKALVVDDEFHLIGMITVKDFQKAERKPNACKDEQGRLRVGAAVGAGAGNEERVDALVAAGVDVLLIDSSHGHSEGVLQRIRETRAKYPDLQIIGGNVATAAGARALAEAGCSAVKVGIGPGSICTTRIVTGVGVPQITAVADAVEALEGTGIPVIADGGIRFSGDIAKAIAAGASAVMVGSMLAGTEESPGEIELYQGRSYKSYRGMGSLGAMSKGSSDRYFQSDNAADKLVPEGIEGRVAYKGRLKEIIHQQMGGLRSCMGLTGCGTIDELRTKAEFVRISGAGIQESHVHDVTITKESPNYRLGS", "assay": "IMPDH activity assay, guanine nucleotide titration (NADH fluorescence)", "details": "for effect on the catalytic activity in vitro: nucleotide alone (no ATP); for effect in vitro on the activity: even at millimolar concentrations, in presence or absence of ATP", "description": "(§1) IMPDH activity was assayed using 384‐well microtiter plates by monitoring the appearance of NADH by fluorescence (λ exc = 340 nm and λ em = 460 nm, using a 10 nm slit window for both excitation and emission).\n(§2) The total amount of MgCl2 was adjusted for each nucleotide concentration to keep 1 mM free Mg^2+ constant concentration, as previously described.[6] The experimental data were fitted to the Michaelis–Menten and allosteric sigmoidal equations using GraphPad Prism (GraphPad Software)."}, "[2]": {"target": "StcIMPDH (Streptomyces coelicolor IMPDH) (Streptomyces coelicolor, UniProt Q9L0I7)", "sequence (Q9L0I7 entry or part of it)": "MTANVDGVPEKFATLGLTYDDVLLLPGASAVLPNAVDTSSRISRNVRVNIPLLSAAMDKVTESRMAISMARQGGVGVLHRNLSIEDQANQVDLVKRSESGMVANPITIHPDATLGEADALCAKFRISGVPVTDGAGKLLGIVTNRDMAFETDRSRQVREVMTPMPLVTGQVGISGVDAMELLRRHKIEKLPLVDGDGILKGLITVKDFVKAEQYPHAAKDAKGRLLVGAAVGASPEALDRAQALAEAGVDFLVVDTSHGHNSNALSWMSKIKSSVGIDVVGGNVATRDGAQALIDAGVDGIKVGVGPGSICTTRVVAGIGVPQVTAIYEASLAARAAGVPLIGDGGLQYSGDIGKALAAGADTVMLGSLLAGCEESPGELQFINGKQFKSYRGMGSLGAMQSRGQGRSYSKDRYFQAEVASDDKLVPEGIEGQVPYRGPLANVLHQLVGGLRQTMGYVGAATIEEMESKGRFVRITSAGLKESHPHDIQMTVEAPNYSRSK", "assay": "IMPDH activity assay, guanine nucleotide titration (NADH fluorescence)", "details": "for K i,app: 0.25 mM ATP present; for effect on the catalytic activity in vitro: nucleotide alone (no ATP)", "description": "as §1, §2"}, "[3]": {"target": "T2, PaIMPDH (Pseudomonas aeruginosa IMPDH) (Pseudomonas aeruginosa, UniProt Q9HXM5)", "T2 construct": "Open reading frames of the different enzymes were amplified by PCR using genomic DNA as template; 8xHis (N, cleaved yes); made in house; host or cells: E. coli BL21 (DE3)", "T2 sequence (Q9HXM5 1-489)": "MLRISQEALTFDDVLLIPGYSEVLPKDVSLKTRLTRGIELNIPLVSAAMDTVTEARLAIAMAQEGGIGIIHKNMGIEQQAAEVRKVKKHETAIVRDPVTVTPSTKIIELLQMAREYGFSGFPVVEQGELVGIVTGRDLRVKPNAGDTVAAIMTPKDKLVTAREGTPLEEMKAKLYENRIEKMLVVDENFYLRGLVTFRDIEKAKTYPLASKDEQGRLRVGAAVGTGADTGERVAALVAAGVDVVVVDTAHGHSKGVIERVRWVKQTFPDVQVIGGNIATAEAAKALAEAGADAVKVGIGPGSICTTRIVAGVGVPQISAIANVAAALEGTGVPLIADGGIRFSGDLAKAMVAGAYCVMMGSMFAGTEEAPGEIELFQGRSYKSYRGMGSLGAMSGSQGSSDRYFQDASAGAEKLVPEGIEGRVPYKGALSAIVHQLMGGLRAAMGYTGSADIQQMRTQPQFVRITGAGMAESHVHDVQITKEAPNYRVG", "assay": "IMPDH activity assay, guanine nucleotide titration (NADH fluorescence)", "details": "for effect on the catalytic activity in vitro: nucleotide alone (no ATP); for effect in vitro on the activity: even at millimolar concentrations, in presence or absence of ATP", "description": "as §1, §2"}, "[4]": {"target": "T3, BsIMPDH (Bacillus subtilis IMPDH) (Bacillus subtilis, UniProt P21879)", "T3 construct": "Open reading frames of the different enzymes were amplified by PCR using genomic DNA as template; 8xHis (N, cleaved yes); made in house; host or cells: E. coli BL21 (DE3)", "T3 sequence (P21879 whole entry)": "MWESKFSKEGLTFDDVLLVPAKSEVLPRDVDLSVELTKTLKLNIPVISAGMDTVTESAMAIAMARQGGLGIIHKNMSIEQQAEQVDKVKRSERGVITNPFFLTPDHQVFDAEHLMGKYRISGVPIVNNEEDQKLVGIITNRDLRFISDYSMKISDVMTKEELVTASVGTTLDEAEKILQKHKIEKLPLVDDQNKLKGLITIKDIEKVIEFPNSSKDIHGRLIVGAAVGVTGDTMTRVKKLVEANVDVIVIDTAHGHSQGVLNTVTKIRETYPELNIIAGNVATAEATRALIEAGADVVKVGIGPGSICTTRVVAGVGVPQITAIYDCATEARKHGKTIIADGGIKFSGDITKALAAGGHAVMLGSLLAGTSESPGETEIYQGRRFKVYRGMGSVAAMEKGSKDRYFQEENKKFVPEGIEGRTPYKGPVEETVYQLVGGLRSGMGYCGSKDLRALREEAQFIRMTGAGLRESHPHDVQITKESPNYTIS", "assay": "IMPDH activity assay, guanine nucleotide titration (NADH fluorescence)", "details": "for K i,app: 0.25 mM ATP present; for effect on the catalytic activity in vitro: nucleotide alone (no ATP); for IC50: read-out: Estimated IC50", "description": "as §1, §2"}, "[5]": {"target": "T4, Helicobacter pylori IMPDH (HpIMPDH) (Helicobacter pylori, UniProt P56088)", "T4 construct": "Open reading frames of the different enzymes were amplified by PCR using genomic DNA as template; 8xHis (N, cleaved yes); made in house; host or cells: E. coli BL21 (DE3)", "T4 sequence (P56088 1-481)": "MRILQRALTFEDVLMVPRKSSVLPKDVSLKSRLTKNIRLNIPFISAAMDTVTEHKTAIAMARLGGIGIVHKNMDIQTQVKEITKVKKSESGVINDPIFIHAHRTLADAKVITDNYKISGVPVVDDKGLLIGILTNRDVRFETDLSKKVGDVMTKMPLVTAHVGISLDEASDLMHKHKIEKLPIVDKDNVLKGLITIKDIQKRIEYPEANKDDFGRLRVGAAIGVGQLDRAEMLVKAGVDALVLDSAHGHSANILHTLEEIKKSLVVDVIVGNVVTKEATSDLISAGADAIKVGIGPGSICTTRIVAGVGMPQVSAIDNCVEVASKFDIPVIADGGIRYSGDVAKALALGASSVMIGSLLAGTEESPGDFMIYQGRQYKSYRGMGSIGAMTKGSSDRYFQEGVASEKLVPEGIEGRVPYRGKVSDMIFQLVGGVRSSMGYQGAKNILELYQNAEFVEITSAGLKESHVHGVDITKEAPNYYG", "assay": "Effects of guanine nucleotides on the catalytic activity of HpIMPDH in vitro", "details": "0.25 mM ATP + 0.5 mM (p)ppGpp, 32°C (Figure S12)", "description": "as §1\nSupplemental Figure 12. Effects of guanine nucleotides on the catalytic activity of HpIMPDH in vitro.Normalized initialvelocity (V0) values calculated as the V0 in the absence of nucleotides divided by the corresponding values inthe presence of the indicated ones. The experiment was performed at 32 °C in buffer 100 mM Tr i s-HCl, pH 8.0, 100 mM KCl, 1 mM DTT, 1 mM free MgCl2, 50 nM enzyme, 0.5 mM NAD+ […]\nNucleotide concentrations were (from left to right): 0.5 mM\nThe Vo value used for normalization was 6.83 ± 0.1 nM/sec.\n(1 picture or pasted object on this page, not shown here)"}, "EcIMPDH": {"target": "T5, EcIMPDH (Escherichia coli, UniProt P0ADG7)", "T5 construct": "Open reading frames of the different enzymes were amplified by PCR using genomic DNA as template; 8xHis (N, cleaved yes); made in house; host or cells: E. coli BL21 (DE3)", "T5 sequence (P0ADG7 whole entry)": "as the sequence (P0ADG7 whole entry) above", "assay": "GTP titration curves at physiological ATP concentration (Km shift)", "details": "read-out: GTP concentration needed to duplicate the Km value, constant 3 mM ATP, 0.5 mM NAD, 32°C", "description": "as §1\n(§3) 32 °C in buffer 100 mM Tr i s-HCl,pH8.0,100 mM KCl, 1 mM DTT, 1 mM free MgCl2, […]"}, "PaIMPDH": {"target": "T6, PaIMPDH (Pseudomonas aeruginosa, UniProt Q9HXM5)", "T6 construct": "Open reading frames of the different enzymes were amplified by PCR using genomic DNA as template; 8xHis (N, cleaved yes); made in house; host or cells: E. coli BL21 (DE3)", "assay": "GTP titration curves at physiological ATP concentration (Km shift)", "details": "read-out: GTP concentration required to duplicate the Km value, constant 3 mM ATP, 0.5 mM NAD, 32°C", "description": "as §1, §3"}},
  "data": [
    {"compound": "Nc1nc2c(ncn2[C@@H]2O[C@H](COP(=O)(O)OP(=O)(O)O)[C@@H](O)[C@H]2O)c(=O)[nH]1", "note": "[GDP]", "values": [
      {"measurement": "K i,app", "setting": "[1]; 0.25 mM ATP present", "result": "mid‐micromolar range"},
      {"measurement": "effect on the catalytic activity in vitro", "setting": "[1]", "result": "did not have a significant effect"},
      {"measurement": "K i,app", "setting": "[2]; StcIMPDH", "result": "millimolar range"},
      {"measurement": "effect on the catalytic activity in vitro", "setting": "[2]; StcIMPDH", "result": "did not have a significant effect"},
      {"measurement": "K i,app", "setting": "[3]; 0.25 mM ATP present", "result": "mid‐micromolar range"},
      {"measurement": "effect on the catalytic activity in vitro", "setting": "[3]", "result": "did not have a significant effect"},
      {"measurement": "K i,app", "setting": "[4]; BsIMPDH", "result": "millimolar range"},
      {"measurement": "effect on the catalytic activity in vitro", "setting": "[4]; BsIMPDH", "result": "did not have a significant effect"}
    ]},
    {"compound": "Nc1nc2c(ncn2[C@@H]2O[C@H](COP(=O)(O)OP(=O)(O)OP(=O)(O)O)[C@@H](OP(=O)(O)OP(=O)(O)O)[C@H]2O)c(=O)[nH]1", "note": "[pppGpp]", "values": [
      {"measurement": "effect in vitro on the activity", "setting": "[1]", "result": "no detectable effect"},
      {"measurement": "IC50", "setting": "[2]", "result": "1.4 ± 0.03", "unit": "µM"},
      {"measurement": "effect in vitro on the activity", "setting": "[3]", "result": "no detectable effect"},
      {"measurement": "IC50", "setting": "[4]", "result": "11.4 ± 1.2", "unit": "µM"}
    ]},
    {"compound": "(p)ppGpp", "values": [
      {"measurement": "effect on catalytic activity of HpIMPDH", "setting": "[5]", "result": "allosteric inhibition"}
    ]},
    {"compound": "Nc1nc2c(ncn2[C@@H]2O[C@H](COP(=O)(O)OP(=O)(O)O)[C@@H](OP(=O)(O)OP(=O)(O)O)[C@H]2O)c(=O)[nH]1", "note": "[ppGpp]", "values": [
      {"measurement": "effect in vitro on the activity", "setting": "[1]", "result": "no detectable effect"},
      {"measurement": "effect on the catalytic activity in vitro", "setting": "[1]", "result": "no significant effect"},
      {"measurement": "IC50", "setting": "[2]", "result": "2 ± 0.03", "unit": "µM"},
      {"measurement": "inhibition of catalytic activity (potency range)", "setting": "[2]; StcIMPDH, combined with ATP", "result": "low micromolar range"},
      {"measurement": "effect on the catalytic activity in vitro", "setting": "[2]; StcIMPDH", "result": "no significant effect"},
      {"measurement": "effect in vitro on the activity", "setting": "[3]", "result": "no detectable effect"},
      {"measurement": "effect on the catalytic activity in vitro", "setting": "[3]", "result": "no significant effect"},
      {"measurement": "inhibition of catalytic activity (potency range)", "setting": "[4]; BsIMPDH, combined with ATP", "result": "low micromolar range"},
      {"measurement": "effect on the catalytic activity in vitro", "setting": "[4]; BsIMPDH", "result": "no significant effect"},
      {"measurement": "IC50", "setting": "[4]", "result": "8.9 ± 0.4", "unit": "µM"}
    ]},
    {"compound": "Nc1nc2c(ncn2[C@@H]2O[C@H](COP(=O)(O)OP(=O)(O)OP(=O)(O)O)[C@@H](O)[C@H]2O)c(=O)[nH]1", "note": "[GTP]", "values": [
      {"measurement": "effect on the catalytic activity in vitro", "setting": "[1]", "result": "did not have a significant effect"},
      {"measurement": "K i,app", "setting": "[2]; StcIMPDH", "result": "millimolar range"},
      {"measurement": "effect on the catalytic activity in vitro", "setting": "[2]; StcIMPDH", "result": "did not have a significant effect"},
      {"measurement": "effect on the catalytic activity in vitro", "setting": "[3]", "result": "did not have a significant effect"},
      {"measurement": "K i,app", "setting": "[4]; BsIMPDH", "result": "millimolar range"},
      {"measurement": "effect on the catalytic activity in vitro", "setting": "[4]; BsIMPDH", "result": "did not have a significant effect"},
      {"measurement": "GTP concentration doubling Km", "setting": "EcIMPDH", "result": 1300, "unit": "µM"},
      {"measurement": "GTP concentration doubling Km", "setting": "PaIMPDH", "result": 800, "unit": "µM"}
    ]}
  ]
}
